Reference: paper PMC3419191, “Identification of Novel Piperazinylquinoxaline Derivatives as Potent Phosphoinositide 3-Kinase (PI3K) Inhibitors” (PLoS ONE, 2012)

How the values were obtained:
PC3 = experiment: MTT assay, antiproliferative activity against PC3 cells; assay type: cell-based; details: Homo sapiens, PC-3, 72 h, mean of at least two determinations
Excerpt: (§1) All synthesized target compounds were firstly tested for their antiproliferative activity against five human cancer cell lines, PC3, A549, HCT116, HL60, and KB, using MTT assay.
(§2) Human prostate cancer PC3 cells, lung adenocarcinoma epithelial A549 cells, colon cancer HCT116 cells, promyelocytic leukemia HL60 cells and nasopharyngeal carcinoma KB cells were obtained from the cell bank of the Institute of Biochemistry and Cell Biology, Chinese Academy of Sciences (Shanghai, China). The inhibitory activity of target compounds against tested cancer cell lines was measured using the MTT assay. PC3, A549, HCT116, HL60, and KB cancer cell lines were cultured in RPMI-1640 medium (Invitrogen, Carlsbad, CA, USA) with heat-inactivated 10% fetal bovine serum, penicillin (100 units/mL) and streptomycin (100 µg/mL) and incubated in an atmosphere with 20% oxygen and 5% carbon dioxide at 37°C. All tested compounds were dissolved in DMSO at concentrations of 10.0 mg/mL and diluted to appropriate concentrations. Cells were plated in 96-well plates for 24 h and subsequently treated with different concentrations of all tested compounds for 72 h. Viable cells were determined using 3-(4,5-dimethylthiazol-2-yl)-2,5-diphenyltetrazolium bromide assay kit (MTT, Sigma) according to operation instructions provided by the manufacturer. The concentration of drug causing 50% inhibition in absorbance compared with control cells (IC50) was calculated using the software of dose-effect analysis with microcomputers.

A549 = experiment: MTT assay, antiproliferative activity against A549 cells; assay type: cell-based; details: Homo sapiens, 72 h, mean of at least two determinations
Excerpt: as §1, §2

HCT116 = experiment: MTT assay, antiproliferative activity against HCT116 cells; assay type: cell-based; details: Homo sapiens, HCT-116, 72 h, mean of at least two determinations
Excerpt: as §1, §2

HL60 = experiment: MTT assay, antiproliferative activity against HL60 cells; assay type: cell-based; details: Homo sapiens, HL-60, 72 h, mean of at least two determinations
Excerpt: as §1, §2

KB = experiment: MTT assay, antiproliferative activity against KB cells; assay type: cell-based; details: Homo sapiens, 72 h, mean of at least two determinations
Excerpt: as §1, §2

recombinant human PI3Kα = target: T1, recombinant human PI3Kα (Homo sapiens, UniProt P42336); experiment: Competitive fluorescence polarization (FP) assay, inhibition of PI3Kα; assay type: biochemical; details: for Binding efficiency index (BEI): BEI = pIC50 (M)/MW (kDa), PI3Kα
T1 construct: purchased Echelon Biosciences (Salt Lake City, UT, USA) E-2000
T1 sequence (P42336 whole entry): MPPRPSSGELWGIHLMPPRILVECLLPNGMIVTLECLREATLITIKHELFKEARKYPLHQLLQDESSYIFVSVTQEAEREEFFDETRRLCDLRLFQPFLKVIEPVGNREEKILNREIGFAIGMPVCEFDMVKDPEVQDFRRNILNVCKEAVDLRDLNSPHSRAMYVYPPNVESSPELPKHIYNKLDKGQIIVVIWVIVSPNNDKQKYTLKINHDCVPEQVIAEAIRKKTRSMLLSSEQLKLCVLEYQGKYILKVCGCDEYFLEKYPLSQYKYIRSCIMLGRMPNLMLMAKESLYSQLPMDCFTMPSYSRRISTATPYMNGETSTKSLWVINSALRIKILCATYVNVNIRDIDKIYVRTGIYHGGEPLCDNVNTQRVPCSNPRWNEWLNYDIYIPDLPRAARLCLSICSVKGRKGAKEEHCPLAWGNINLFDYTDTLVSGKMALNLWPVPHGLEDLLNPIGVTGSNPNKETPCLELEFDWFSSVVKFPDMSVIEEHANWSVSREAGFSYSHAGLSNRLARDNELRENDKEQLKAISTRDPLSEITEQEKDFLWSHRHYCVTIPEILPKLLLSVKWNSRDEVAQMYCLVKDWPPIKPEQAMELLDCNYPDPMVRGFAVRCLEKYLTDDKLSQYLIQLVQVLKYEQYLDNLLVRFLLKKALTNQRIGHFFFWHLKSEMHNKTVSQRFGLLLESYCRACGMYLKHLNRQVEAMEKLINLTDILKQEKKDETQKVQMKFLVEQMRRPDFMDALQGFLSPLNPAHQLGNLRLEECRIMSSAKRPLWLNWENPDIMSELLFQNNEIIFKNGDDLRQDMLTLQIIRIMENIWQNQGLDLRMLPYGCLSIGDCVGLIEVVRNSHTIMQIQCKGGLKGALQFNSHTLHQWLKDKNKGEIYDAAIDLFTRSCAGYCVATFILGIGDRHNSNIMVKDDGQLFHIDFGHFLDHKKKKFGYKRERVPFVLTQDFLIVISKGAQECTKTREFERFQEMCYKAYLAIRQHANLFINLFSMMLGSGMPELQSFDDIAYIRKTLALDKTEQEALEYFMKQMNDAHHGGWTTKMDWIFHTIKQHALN
T1 sequence (P27986 whole entry partner): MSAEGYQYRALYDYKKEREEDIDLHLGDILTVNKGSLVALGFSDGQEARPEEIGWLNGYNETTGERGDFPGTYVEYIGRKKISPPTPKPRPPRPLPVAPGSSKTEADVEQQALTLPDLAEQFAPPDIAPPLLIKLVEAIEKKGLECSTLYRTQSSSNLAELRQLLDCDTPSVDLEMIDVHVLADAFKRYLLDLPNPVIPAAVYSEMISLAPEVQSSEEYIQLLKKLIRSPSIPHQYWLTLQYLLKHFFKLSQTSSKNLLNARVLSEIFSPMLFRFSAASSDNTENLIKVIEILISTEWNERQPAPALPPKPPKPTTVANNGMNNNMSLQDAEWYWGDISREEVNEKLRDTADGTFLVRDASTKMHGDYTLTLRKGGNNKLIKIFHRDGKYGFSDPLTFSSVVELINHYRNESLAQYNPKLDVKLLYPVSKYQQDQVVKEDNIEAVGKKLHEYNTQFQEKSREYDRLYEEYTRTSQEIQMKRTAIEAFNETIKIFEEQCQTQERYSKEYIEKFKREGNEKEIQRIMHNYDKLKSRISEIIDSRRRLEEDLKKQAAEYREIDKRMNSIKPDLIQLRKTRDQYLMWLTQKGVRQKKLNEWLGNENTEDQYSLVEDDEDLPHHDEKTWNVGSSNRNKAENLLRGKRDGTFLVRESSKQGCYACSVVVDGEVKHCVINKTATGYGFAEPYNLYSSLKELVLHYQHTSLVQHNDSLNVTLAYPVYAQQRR
Method: Selected compounds were then tested for their enzymatic inhibitory activity against PI3Kα using a competitive fluorescence polarization (FP) assay to determine the molecular target of synthesized compounds [21].
The PI3Kα inhibitory test was determined using a competitive fluorescence polarization kinase activity assay. PI3K fluorescence polarization assay kit (catalog No. K-1100) and recombinant human PI3Kα (catalog No. E-2000) were purchased from Echelon Biosciences (Salt Lake City, UT, USA). PI3K reactions were performed in 5 mM HEPES, Ph 7, 2.5 mM MgCl2, 10 mM DTT and 50 µM ATP, using diC8-phosphatidylinositol-4, 5-bisphosphate (PIP2) as the substrate, and the final reaction volumes were 10 µL. For evaluation of the PI3Kα inhibitory activity of target compounds, 50 ng enzyme and 10 µM substate were used per 10 µL reaction volume with the concentrations of inhibitors ranging from 3.2 nM to 10 µM. After incubating for 3 h at room temperature, reactions were quenched by adding chelators. A mixture of phosphoinositide binding protein was added and mixed, followed by the addition of a fluorophore-labeled phosphoinositide tracer. Samples were then mixed in 384-well black Corning nonbinding plates (Corning, NY, USA) and incubated in a dark environment for 1 h to equilibrate. Finally, polarization values were measure using red fluorophores with appropriate filters to determine the extent of enzyme activity in the reaction.

[1] = FP assay, 50 µM ATP, mean of at least two determinations

SMILES | IC50 (PC3) [µM] | IC50 (A549) [µM] | IC50 (HCT116) [µM] | IC50 (HL60) [µM] | IC50 (KB) [µM] | IC50 (recombinant human PI3Kα; [1]) [µM] | melting point [°C] | Binding efficiency index (BEI) (recombinant human PI3Kα) | IC50 (recombinant human PI3Kα; as used for BEI, Table 5) [µM]
O=S(=O)(c1ccccc1)c1nc2ccccc2nc1N1CCOCC1 [WR1, reference compound] | 18.9 | 12.6 | 5.35 | 4.47 | – | – | – | 17.9 | –
O=C(c1ccccc1)N1CCN(c2nc3ccccc3nc2S(=O)(=O)c2ccccc2)CC1 [Compound 29, 2-(4-Benzoylpiperazin-1-yl)-3-(phenylsulfonyl)quinoxaline] | 4.99 | 5.2 | 42.4 | 7.2 | 1.22 | > 10 | 224 to 226 | – | –
CS(=O)(=O)N1CCN(c2nc3ccccc3nc2S(=O)(=O)c2ccc(F)cc2)CC1 [Compound 43, 2-(4-(Methylsulfonyl)piperazin-1-yl)-3-(4-fluorophenylsulfonyl)quinoxaline] | 3.3 | 1.26 | 0.33 | – | – | 1.01 | 206 to 207 | 13.3 | –
O=S(=O)(c1ccccc1)c1nc2ccccc2nc1N1CCN(CCCN2CCOCC2)CC1 [Compound 49, 2-(4-(3-Morpholinopropyl)piperazin-1-yl)-3-(phenylsulfonyl)quinoxaline] | 5.12 | 0.73 | 0.65 | – | – | 0.18 | – | 14.0 | –
Cc1ccc(S(=O)(=O)c2nc3ccccc3nc2N2CCN(S(C)(=O)=O)CC2)cc1 [Compound 40, 2-(4-(Methylsulfonyl)piperazin-1-yl)-3-(4-methylphenylsulfonyl)quinoxaline] | 5.35 | 1.93 | 1.07 | – | – | 0.46 | – | – | –
O=C(c1ccc(Cl)cc1)N1CCN(c2nc3ccccc3nc2S(=O)(=O)c2ccc(F)cc2)CC1 [Compound 38, 2-(4-(4-Chlorobenzoyl)piperazin-1-yl)-3-(4-fluorophenylsulfonyl)quinoxaline] | 4.05 | 17.7 | 8.75 | 4.44 | 1.88 | – | 214 to 215 | – | –
Cc1ccc(S(=O)(=O)c2nc3ccccc3nc2N2CCN(S(=O)(=O)c3ccc(C)cc3)CC2)cc1 [Compound 45, 2-(4-(4-Methylphenylsulfonyl)piperazin-1-yl)-3-(4-methylphenylsulfonyl)-quinoxaline] | 3.48 | 49.5 | 1.92 | 9.28 | 2.68 | – | 174 to 175 | – | –
CC(=O)N1CCN(c2nc3ccccc3nc2S(=O)(=O)c2ccc(Br)cc2)CC1 [Compound 12, 2-(4-Acetylpiperazin-1-yl)-3-(4-bromophenylsulfonyl)quinoxaline] | 3.03 | 9.79 | 0.53 | 0.12 | 4.3 | – | 174 to 178 | – | –
O=S(=O)(c1ccc(Br)cc1)c1nc2ccccc2nc1N1CCC(O)CC1 [WR23, reference compound] | – | – | – | – | – | – | – | 17.0 | –

The remaining lines, values ahead:

IC50 (PC3) [µM] | IC50 (A549) [µM] | IC50 (HCT116) [µM] | IC50 (HL60) [µM] | IC50 (KB) [µM] | IC50 (recombinant human PI3Kα; [1]) [µM] | melting point [°C] | Binding efficiency index (BEI) (recombinant human PI3Kα) | IC50 (recombinant human PI3Kα; as used for BEI, Table 5) [µM] | SMILES
0.84 | 2.4 | 1.68 | 0.69 | 0.47 | > 10 | 127 to 130 | – | – | Cc1ccc(S(=O)(=O)c2nc3ccccc3nc2N2CCN(C)CC2)cc1 [Compound 15, 2-(4-Methylpiperazin-1-yl)-3-(4-methylphenylsulfonyl)quinoxaline]
2.19 | 24.3 | 7.49 | 6.4 | 3.08 | > 10 | 161 to 163 | – | – | Cc1ccc(S(=O)(=O)N2CCN(c3nc4ccccc4nc3S(=O)(=O)c3ccccc3)CC2)cc1 [Compound 44, 2-(4-(4-Methylphenylsulfonyl)piperazin-1-yl)-3-(phenylsulfonyl)quinoxaline]
0.93 | 1.65 | 0.54 | 0.16 | 8.53 | 0.24 | 130 to 133 | 16.6 | 0.24 | COc1ccc(S(=O)(=O)c2nc3ccccc3nc2N2CCNC(C)C2)cc1 (stereo not drawn) [Compound 26, 2-(3-Methylpiperazin-1-yl)-3-(4-methoxyphenylsulfonyl)quinoxaline]
2.25 | 1.02 | 1.84 | 2.43 | 4.42 | 1.09 | 144 to 146 | 15.1 | – | CC(=O)N1CCN(c2nc3ccccc3nc2S(=O)(=O)c2ccccc2)CC1 [Compound 9, 2-(4-Acetylpiperazin-1-yl)-3-(phenylsulfonyl)quinoxaline]
1.44 | 1.36 | 0.68 | 0.15 | 8.73 | 0.059 | – | 19.7 | – | CC1CN(c2nc3ccccc3nc2S(=O)(=O)c2ccccc2)CCN1 (stereo not drawn) [Compound 24, 2-(3-Methylpiperazin-1-yl)-3-(phenylsulfonyl)quinoxaline]
1.07 | 2.37 | 1.21 | – | – | 1.34 | 182 to 185 | 13.6 | – | CS(=O)(=O)N1CCN(c2nc3ccccc3nc2S(=O)(=O)c2ccccc2)CC1 [Compound 39, 2-(4-(Methylsulfonyl)piperazin-1-yl)-3-(phenylsulfonyl)quinoxaline]
0.9 | 12.8 | 0.99 | 0.11 | 8.27 | 0.19 | – | 19.0 | – | O=S(=O)(c1ccccc1)c1nc2ccccc2nc1N1CCNCC1 [Compound 19, 2-(Piperazin-1-yl)-3-(phenylsulfonyl)quinoxaline]
1.95 | 1.32 | 0.41 | – | – | 0.44 | 194 to 196 | 12.4 | – | CS(=O)(=O)N1CCN(c2nc3ccccc3nc2S(=O)(=O)c2ccc(Br)cc2)CC1 [Compound 42, 2-(4-(Methylsulfonyl)piperazin-1-yl)-3-(4-bromophenylsulfonyl)quinoxaline]
1.19 | 0.34 | 0.22 | – | – | 0.2 | – | 11.9 | – | O=S(=O)(c1ccc(Br)cc1)c1nc2ccccc2nc1N1CCN(CCCN2CCOCC2)CC1 [Compound 52, 2-(4-(3-Morpholinopropyl)piperazin-1-yl)-3-(4-bromophenylsulfonyl)quinoxaline]
2.89 | > 50 | 10.6 | 6.11 | 5.09 | – | 214 to 216 | – | – | O=C(c1ccc(Cl)cc1)N1CCN(c2nc3ccccc3nc2S(=O)(=O)c2ccc(Br)cc2)CC1 [Compound 37, 2-(4-(4-Chlorobenzoyl)piperazin-1-yl)-3-(4-bromophenylsulfonyl)quinoxaline]
2.28 | 17 | 2.55 | 0.21 | 10.2 | – | 185 to 187 | – | – | COc1ccc(S(=O)(=O)c2nc3ccccc3nc2N2CCC(C(N)=O)CC2)cc1 [Compound 6, 2-(4-Carbamoylpiperidin-1-yl)-3-(4-methoxyphenylsulfonyl)quinoxaline]
